Reference: ChEMBL document CHEMBL1201862, “PubChem BioAssay data set” (2004)
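Cells were grown in 96-well plates and exposed to each compound for 48 hours at five concentrations; endpoints were interpolated linearly between bracketing concentrations, or set to the highest concentration if not reached. GI50: concentration for 50% inhibition of growth.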 Activity calls are given as the source filed them. Cut-off read from the data, not from the text of the source: active = GI50 up to about 1.1 µM and inactive = higher.

Legend:
Assay in all cases: growth of human tumour cells (NCI), 48 h
[1] = system: SNB-75
[2] = system: DU-145
[3] = system: SK-MEL-28
[4] = system: SK-MEL-5
[5] = system: KM12
[6] = system: HCT-116
[7] = system: UO-31
[8] = system: BT-549
[9] = system: HOP-92
[10] = system: A498
[11] = system: SN12C
[12] = system: HOP-62
[13] = system: PC-3
[14] = system: LOX IMVI
[15] = system: UACC-62
[16] = system: HL-60
[17] = system: SF-295
[18] = system: MCF7
[19] = system: SK-MEL-2
[20] = system: MDA-N

Compound	GI50 [1]	GI50 [2]	GI50 [3]	GI50 [4]	GI50 [5]	GI50 [6]	GI50 [7]	GI50 [8]	GI50 [9]	GI50 [10]	GI50 [11]	GI50 [12]	GI50 [13]	GI50 [14]	GI50 [15]	GI50 [16]	GI50 [17]	GI50 [18]	GI50 [19]	GI50 [20]
Brc1ccc2c(-c3csc(-c4c[nH]c5ccccc45)n3)c[nH]c2c1	24.4 µM (inactive)	18.8 µM (inactive)	14.9 µM (inactive)	15.3 µM (inactive)	14.2 µM (inactive)	14.7 µM (inactive)	14 µM (inactive)	18.3 µM (inactive)	15.6 µM (inactive)	17 µM (inactive)	17.3 µM (inactive)	15 µM (inactive)	15.6 µM (inactive)	15.5 µM (inactive)	18.2 µM (inactive)	–	–	–	–	–
C[C@]12CCC(=O)O[C@H]1CCCCO2	87.5 µM (inactive)	> 100 µM (inactive)	> 100 µM (inactive)	> 100 µM (inactive)	> 100 µM (inactive)	> 100 µM (inactive)	–	–	28.1 µM (inactive)	> 100 µM (inactive)	> 100 µM (inactive)	> 100 µM (inactive)	> 100 µM (inactive)	> 100 µM (inactive)	> 100 µM (inactive)	> 100 µM (inactive)	> 100 µM (inactive)	> 100 µM (inactive)	> 100 µM (inactive)	> 100 µM (inactive)
COc1cc2c(c(OC)c1OC)-c1ccc(OC)c(=O)cc1C(NC(=O)c1ccc(N=[N+]=[N-])cc1)CC2 (configuration not stated)	0.766 µM (active)	0.0378 µM (active)	0.789 µM (active)	0.0264 µM (active)	0.0234 µM (active)	0.0334 µM (active)	9.08 µM (inactive)	0.0507 µM (active)	0.0396 µM (active)	0.0186 µM (active)	0.0514 µM (active)	0.0413 µM (active)	–	0.0423 µM (active)	0.0275 µM (active)	0.0272 µM (active)	0.0246 µM (active)	0.0144 µM (active)	0.0327 µM (active)	–
O=C1CC2CCN(C(=O)c3ccccc3)CC2CCN1 (configuration not stated)	> 100 µM (inactive)	–	> 100 µM (inactive)	> 100 µM (inactive)	> 100 µM (inactive)	> 100 µM (inactive)	> 100 µM (inactive)	–	> 100 µM (inactive)	> 100 µM (inactive)	> 100 µM (inactive)	> 100 µM (inactive)	–	> 100 µM (inactive)	> 100 µM (inactive)	> 100 µM (inactive)	> 100 µM (inactive)	–	0.578 µM (active)	–
Cc1cc(N(C)c2ccccc2)nc(N(C)c2ccccc2)n1	41.1 µM (inactive)	92.3 µM (inactive)	35.5 µM (inactive)	27.1 µM (inactive)	18.1 µM (inactive)	19.6 µM (inactive)	80.2 µM (inactive)	–	–	64.9 µM (inactive)	46.8 µM (inactive)	31.2 µM (inactive)	43.3 µM (inactive)	13.3 µM (inactive)	28.6 µM (inactive)	37.8 µM (inactive)	20.2 µM (inactive)	33.7 µM (inactive)	15.8 µM (inactive)	52.4 µM (inactive)
COc1ccc(N[S+]([O-])c2cccc(C)c2)cc1 (configuration not stated)	> 100 µM (inactive)	> 100 µM (inactive)	33 µM (inactive)	25.6 µM (inactive)	17.5 µM (inactive)	32.7 µM (inactive)	20.4 µM (inactive)	–	–	–	> 100 µM (inactive)	64 µM (inactive)	> 100 µM (inactive)	17.3 µM (inactive)	–	25.7 µM (inactive)	> 100 µM (inactive)	75.5 µM (inactive)	–	> 100 µM (inactive)
CCOC(=O)/C(=C\n1c(=O)sc2ccccc21)C(=O)c1ccccc1	53.8 µM (inactive)	> 100 µM (inactive)	> 100 µM (inactive)	54.2 µM (inactive)	> 100 µM (inactive)	> 100 µM (inactive)	26 µM (inactive)	–	–	> 100 µM (inactive)	> 100 µM (inactive)	> 100 µM (inactive)	> 100 µM (inactive)	> 100 µM (inactive)	> 100 µM (inactive)	33.5 µM (inactive)	88.1 µM (inactive)	> 100 µM (inactive)	> 100 µM (inactive)	–
[O-][S+](CC1(O)CCCCC1)c1ccccc1 (configuration not stated)	> 100 µM (inactive)	> 100 µM (inactive)	> 100 µM (inactive)	> 100 µM (inactive)	> 100 µM (inactive)	> 100 µM (inactive)	> 100 µM (inactive)	> 100 µM (inactive)	–	–	> 100 µM (inactive)	> 100 µM (inactive)	> 100 µM (inactive)	> 100 µM (inactive)	> 100 µM (inactive)	> 100 µM (inactive)	> 100 µM (inactive)	> 100 µM (inactive)	> 100 µM (inactive)	–
CSc1nc(NC2OC(COC(C)=O)C(OC(C)=O)C(OC(C)=O)C2OC(C)=O)c(-c2csc(N)n2)c(=O)n1C (configuration not stated)	18 µM (inactive)	–	37.7 µM (inactive)	57.5 µM (inactive)	> 100 µM (inactive)	31 µM (inactive)	24.6 µM (inactive)	–	23.5 µM (inactive)	> 100 µM (inactive)	49.5 µM (inactive)	24.2 µM (inactive)	–	93.3 µM (inactive)	26.1 µM (inactive)	> 100 µM (inactive)	33.6 µM (inactive)	–	28.6 µM (inactive)	–
OC(CCNCc1ccccc1)c1ccc2ccccc2c1 (configuration not stated)	28.2 µM (inactive)	18.3 µM (inactive)	18.4 µM (inactive)	17.2 µM (inactive)	17 µM (inactive)	22.4 µM (inactive)	16 µM (inactive)	–	–	19.4 µM (inactive)	29.1 µM (inactive)	19.3 µM (inactive)	20.3 µM (inactive)	13.5 µM (inactive)	19.3 µM (inactive)	19.5 µM (inactive)	33 µM (inactive)	24.9 µM (inactive)	20.5 µM (inactive)	–
O=c1oc2c/c(=C\c3ccccn3)c(=O)c3cccc1c3-2	–	> 100 µM (inactive)	> 100 µM (inactive)	> 100 µM (inactive)	50.4 µM (inactive)	35.2 µM (inactive)	–	–	> 100 µM (inactive)	–	95.5 µM (inactive)	15.4 µM (inactive)	72.6 µM (inactive)	29 µM (inactive)	> 100 µM (inactive)	> 100 µM (inactive)	> 100 µM (inactive)	> 100 µM (inactive)	–	> 100 µM (inactive)
CC(C)=Cc1cc(C)c2c(O)cc(C)c3c2c1C(C)=C(O)C3=O	–	28.7 µM (inactive)	–	17.1 µM (inactive)	20.5 µM (inactive)	17.7 µM (inactive)	32.7 µM (inactive)	–	7.85 µM (inactive)	22.9 µM (inactive)	32.9 µM (inactive)	20.7 µM (inactive)	32.8 µM (inactive)	20.1 µM (inactive)	20.5 µM (inactive)	29.9 µM (inactive)	22.2 µM (inactive)	24.3 µM (inactive)	22.9 µM (inactive)	33 µM (inactive)
O=C(Nc1ccn(CCI)c(=O)n1)c1ccccc1	> 100 µM (inactive)	–	> 100 µM (inactive)	> 100 µM (inactive)	> 100 µM (inactive)	> 100 µM (inactive)	> 100 µM (inactive)	–	> 100 µM (inactive)	> 100 µM (inactive)	> 100 µM (inactive)	> 100 µM (inactive)	–	> 100 µM (inactive)	> 100 µM (inactive)	> 100 µM (inactive)	> 100 µM (inactive)	–	> 100 µM (inactive)	–
COc1ccc(OC)c([N+](=O)[O-])c1-c1nc2sc(C)c(C)n2c1/C=N/N=C(N)N	–	> 100 µM (inactive)	54.5 µM (inactive)	34.5 µM (inactive)	20.9 µM (inactive)	> 100 µM (inactive)	> 100 µM (inactive)	25.9 µM (inactive)	61 µM (inactive)	> 100 µM (inactive)	> 100 µM (inactive)	> 100 µM (inactive)	40.8 µM (inactive)	49 µM (inactive)	45.7 µM (inactive)	25.6 µM (inactive)	84.1 µM (inactive)	24 µM (inactive)	21.3 µM (inactive)	–
COc1ccc(/C=N/Nc2nc(=S)[nH]c3[nH]ncc23)cc1	> 100 µM (inactive)	36.5 µM (inactive)	35.2 µM (inactive)	30 µM (inactive)	49.9 µM (inactive)	> 100 µM (inactive)	> 100 µM (inactive)	> 100 µM (inactive)	–	40.9 µM (inactive)	> 100 µM (inactive)	29.9 µM (inactive)	52.2 µM (inactive)	33.8 µM (inactive)	31 µM (inactive)	> 100 µM (inactive)	40.6 µM (inactive)	43.5 µM (inactive)	45.7 µM (inactive)	–
CCN(CC)CCNc1ccc2nnn3c4ccccc4c(=O)c1c23	3.6 µM (inactive)	–	4.65 µM (inactive)	3.08 µM (inactive)	4.01 µM (inactive)	4.44 µM (inactive)	4.46 µM (inactive)	–	2.48 µM (inactive)	11.4 µM (inactive)	4.41 µM (inactive)	4.18 µM (inactive)	–	2.86 µM (inactive)	5.73 µM (inactive)	2.89 µM (inactive)	4.29 µM (inactive)	–	6.85 µM (inactive)	–
Cc1c2ccncc2c(C)c2c1[nH]c1ccc(Cl)cc12	3.55 µM (inactive)	–	5.69 µM (inactive)	4.75 µM (inactive)	1.86 µM (inactive)	1.07 µM (active)	3.56 µM (inactive)	–	–	4.46 µM (inactive)	3.41 µM (inactive)	3.85 µM (inactive)	–	1.55 µM (inactive)	3.37 µM (inactive)	2.11 µM (inactive)	–	2.17 µM (inactive)	3.51 µM (inactive)	–
